# Assay results: patent publication US12679832B2, “Compounds and their uses as CD38 inhibitors” (Nanjing Immunophage Biotech Co., Ltd., priority 2021, dated 2026)
# Target: T1, hCD38 Enzyme (Homo sapiens, UniProt P28907)
# T1 construct: purchased Sino Biological Inc 10818-H08H
# T1 sequence (P28907 43-300 limits assumed): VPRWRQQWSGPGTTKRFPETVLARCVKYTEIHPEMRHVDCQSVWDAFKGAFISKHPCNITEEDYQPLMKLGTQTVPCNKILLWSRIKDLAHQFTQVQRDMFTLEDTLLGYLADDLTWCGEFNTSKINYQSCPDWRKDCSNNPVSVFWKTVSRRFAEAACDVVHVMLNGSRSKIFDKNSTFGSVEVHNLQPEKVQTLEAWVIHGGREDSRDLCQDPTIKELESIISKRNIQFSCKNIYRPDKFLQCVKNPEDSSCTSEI
# Experiment: CD38 hydrolase enzymatic assay
# Type: biochemical
# Details: rhCD38, ε-NAD substrate, 25° C., point reading time 20 mins; read-out: hCD38 Enzyme inhibition IC50
# Method: Also, a blank sample was prepared with 50 μl of sucrose buffer and no test compounds.
# The dynamic reading was performed at 25° C. with excitation light of 300 nm and emission light of 410 nm on the enzyme marker by contacting the above-prepared rhCD38 enzyme working fluid and the above-prepared solutions of the test compounds disclosed herein or the solution of the control. The readings were recorded for a total of 1 hour, and the data were analyzed with the point reading time of 20 mins.
# Fluorescence was recorded by a microplate reader. Individual excel files containing fluorescence data were exported and the results were plotted against various drug concentrations and analyzed in GraphPad Prism 7.0 for concentration curve generation.
row,IC50,Compound
1,15 nM,"O=C(Nc1ccccc1)c1cccc(-n2ccnc2)n1 [compound 81, 6-(1H-imidazol-1-yl)-N-phenylpicolinamide]"
2,2750 nM,"CNc1nc(C(=O)N[C@H]2CC[C@H](OC)CC2)cc(-n2ccnc2)n1 [compound 22, 6-(1H-imidazol-1-yl)-N-((1r,4r)-4-methoxycyclohexyl)-2-(methylamino)pyrimidine-4-carboxamide]"
3,6.8 nM,"O=C(Nc1ccc(F)c(F)c1)c1cc(C(F)(F)F)nc(-n2ccnc2)n1 [compound 173, N-(3,4-difluorophenyl)-2-(1H-imidazol-1-yl)-6-(trifluoromethyl) pyrimidine-4-carboxamide]"
4,2190 nM,"Cc1cncn1-c1cncc(C(=O)NC2CCCCC2)n1 [compound 79, N-cyclohexyl-6-(5-methyl-1H-imidazol-1-yl)pyrazine-2-carboxamide]"
5,13 nM,"O=C(Nc1ccccc1F)c1ccnc(-n2ccnc2)n1 [compound 84, N-(2-fluorophenyl)-2-(1H-imidazol-1-yl)pyrimidine-4-carboxamide]"
6,43 nM,"O=C(Nc1cccc(F)c1)c1nc(-n2ccnc2)ncc1N1CCCCC1 [compound 115, N-(3-fluorophenyl)-2-(1H-imidazol-1-yl)-5-(piperidin-1-yl) pyrimidine-4-carboxamide]"
7,11 nM,"O=C(Nc1cnc(OCCO)nc1)c1cc(C(F)(F)F)nc(-n2ccnc2)n1 [compound 193, N-(2-(2-hydroxyethoxy)pyrimidin-5-yl)-2-(1H-imidazol-1-yl)-6-(trifluoromethyl) pyrimidine-4-carboxamide]"
8,3.8 nM,"O=C(Nc1cccnc1)c1cc(C(F)(F)F)cc(-n2ccnc2)n1 [compound 191, 6-(1H-imidazol-1-yl)-N-(pyridin-3-yl)-4-(trifluoromethyl) picolinamide]"
9,28 nM,"CO[C@H]1CC[C@H](NC(=O)c2cc(C(F)(F)F)nc(-n3ccnc3)n2)CC1 [compound 103, 2-(1H-imidazol-1-yl)-N-((1r,4r)-4-methoxycyclohexyl)-6-(trifluoromethyl) pyrimidine-4-carboxamide]"
10,895 nM,"CO[C@H]1CC[C@H](NC(=O)c2cc(O)cc(-n3ccnc3)n2)CC1 [compound 5, 4-hydroxy-6-(1H-imidazol-1-yl)-N-((1r,4r)-4-methoxycyclohexyl)picolinamide]"
11,29 nM,"O=C(Nc1ccccc1Cl)c1ccnc(-n2ccnc2)n1 [compound 85, N-(2-chlorophenyl)-2-(1H-imidazol-1-yl)pyrimidine-4-carboxamide]"
12,46 nM,"O=C(NC1CCCCC1)c1cc(N2CCCCC2)nc(-n2ccnc2)n1 [compound 144, N-cyclohexyl-2-(1H-imidazol-1-yl)-6-(piperidin-1-yl)pyrimidine-4-carboxamide]"
13,46 nM,"CO[C@H]1CC[C@H](NC(=O)c2cc(N3CCCCC3)nc(-n3ccnc3)n2)CC1 [compound 26, 2-(1H-imidazol-1-yl)-N-((1r,4r)-4-methoxycyclohexyl)-6-(piperidin-1-yl)pyrimidine-4-carboxamide]"
14,> 10000 nM,"Cc1ccc(F)cc1NC(=O)c1cc(N2CCCCC2)nc(-n2ccnc2)n1 [compound 137, N-(5-fluoro-2-methylphenyl)-2-(1H-imidazol-1-yl)-6-(piperidin-1-yl)pyrimidine-4-carboxamide]"
15,4 nM,"O=C(Nc1cncc(F)c1)c1cc(C(F)(F)F)nc(-n2ccnc2)n1 [compound 167, N-(5-fluoropyridin-3-yl)-2-(1H-imidazol-1-yl)-6-(trifluoromethyl) pyrimidine-4-carboxamide]"
16,> 10000 nM,"CO[C@H]1CC[C@H](NC(=O)c2cccc(-c3ccno3)n2)CC1 [compound 17, 6-(isoxazol-5-yl)-N-((1r,4r)-4-methoxycyclohexyl)picolinamide]"
17,45 nM,"CO[C@H]1CC[C@H](NC(=O)c2cc(N(C)C)nc(-n3ccnc3)n2)CC1 [compound 23, 6-(dimethylamino)-2-(1H-imidazol-1-yl)-N-((1r,4r)-4-methoxycyclohexyl)pyrimidine-4-carboxamide]"
18,831 nM,"CO[C@H]1CC[C@H](NC(=O)c2nc(-n3ccnc3)ncc2C(F)(F)F)CC1 [compound 161, 2-(1H-imidazol-1-yl)-N-((1r,4r)-4-methoxycyclohexyl)-5-(trifluoromethyl) pyrimidine-4-carboxamide]"
19,> 10000 nM,"Cc1cn(-c2cncc(C(=O)NC3CCCCC3)n2)cn1 [compound 78, N-cyclohexyl-6-(4-methyl-1H-imidazol-1-yl)pyrazine-2-carboxamide]"
20,28 nM,"CO[C@H]1CC[C@H](NC(=O)c2cc(-c3ccncc3)nc(-n3ccnc3)n2)CC1 [compound 183, 2-(1H-imidazol-1-yl)-N-((1r,4r)-4-methoxycyclohexyl)-6-(pyridin-4-yl) pyrimidine-4-carboxamide]"

row,IC50,Compound
1,2 nM,"N#Cc1cc(C(=O)Nc2ccc(F)cc2)nc(-n2ccnc2)n1 [compound 187, 6-cyano-N-(4-fluorophenyl)-2-(1H-imidazol-1-yl)pyrimidine-4-carboxamide]"
2,842 nM,"CO[C@H]1CC[C@H](NC(=O)c2nc(-c3cncs3)cnc2N)CC1 [compound 27, 3-amino-N-((1r,4r)-4-methoxycyclohexyl)-6-(thiazol-5-yl)pyrazine-2-carboxamide]"
3,> 10000 nM,"CN(C(=O)c1cc(N2CCCCC2)nc(-n2ccnc2)n1)c1cccc(F)c1 [compound 117, N-(3-fluorophenyl)-2-(1H-imidazol-1-yl)-N-methyl-6-(piperidin-1-yl)pyrimidine-4-carboxamide]"
4,3430 nM,"CO[C@H]1CC[C@H](NC(=O)c2ccnc(-n3cccn3)n2)CC1 [compound 100, N-((1r,4r)-4-methoxycyclohexyl)-2-(1H-pyrazol-1-yl)pyrimidine-4-carboxamide]"
5,456 nM,"O=C(NCc1ccccc1)c1cncc(-n2ccnc2)n1 [compound 38, N-benzyl-6-(1H-imidazol-1-yl)pyrazine-2-carboxamide]"
6,9.6 nM,COCCOc1cc(F)cc(NC(=O)c2cc(C(F)(F)F)nc(-n3ccnc3)n2)c1 [Compound 182]
7,38 nM,"CNc1ncc(-n2ccnc2)nc1C(=O)N[C@H]1CC[C@H](OC)CC1 [compound 47, 6-(1H-imidazol-1-yl)-N-((1r,4r)-4-methoxycyclohexyl)-3-(methylamino)pyrazine-2-carboxamide]"
8,40 nM,"COc1cc(C(=O)N[C@H]2CC[C@H](OC)CC2)nc(-n2ccnc2)c1 [compound 4, 6-(1H-imidazol-1-yl)-4-methoxy-N-((1r,4r)-4-methoxycyclohexyl)picolinamide]"
9,> 10000 nM,"CO[C@H]1CC[C@H](NC(=O)c2ccc(C(F)(F)F)c(-n3ccnc3)n2)CC1 [compound 152, 6-(1H-imidazol-1-yl)-N-((1r,4r)-4-methoxycyclohexyl)-5-(trifluoromethyl) picolinamide]"
10,3910 nM,"CC(C)(C)NC(=O)c1cncc(-n2ccnc2)n1 [compound 34, N-(tert-butyl)-6-(1H-imidazol-1-yl)pyrazine-2-carboxamide]"
11,29 nM,"CO[C@H]1CC[C@H](NC(=O)c2cc(-n3ccnc3)cc(-n3ccnc3)n2)CC1 [compound 1, 4,6-di (1H-imidazol-1-yl)-N-((1r,4r)-4-methoxycyclohexyl)picolinamide]"
12,> 10000 nM,"CO[C@H]1CC[C@H](NC(=O)c2ccc(N)c(-n3ccnc3)n2)CC1 [compound 20, 5-amino-6-(1H-imidazol-1-yl)-N-((1r,4r)-4-methoxycyclohexyl)picolinamide]"
13,16 nM,C[C@H]1CC[C@H](NC(=O)c2cc(OC3COC3)nc(-n3ccnc3)n2)CC1 [Compound 150]
14,> 10000 nM,"CO[C@H]1CC[C@H](NC(=O)c2cccc(-c3nnco3)n2)CC1 [compound 19, N-((1r,4r)-4-methoxycyclohexyl)-6-(1,3,4-oxadiazol-2-yl) picolinamide]"
15,> 10000 nM,"CO[C@H]1CC[C@H](NC(=O)c2ccc(C)c(-n3ccnc3)n2)CC1 [compound 76, 6-(1H-imidazol-1-yl)-N-((1r,4r)-4-methoxycyclohexyl)-5-methylpicolinamide]"
16,28 nM,CO[C@H]1CC[C@H](NC(=O)c2cc(-c3ccnc(C(F)(F)F)c3)nc(-n3ccnc3)n2)CC1 [Compound 184]
17,84 nM,"O=C(NC1CCOCC1)c1cncc(-n2ccnc2)n1 [compound 32, 6-(1H-imidazol-1-yl)-N-(tetrahydro-2H-pyran-4-yl)pyrazine-2-carboxamide]"
18,2450 nM,"CO[C@H]1CC[C@H](NC(=O)c2ccc(Cl)c(-n3ccnc3)n2)CC1 [compound 77, 5-chloro-6-(1H-imidazol-1-yl)-N-((1r,4r)-4-methoxycyclohexyl) picolinamide]"
19,17 nM,"CO[C@H]1CC[C@H](NC(=O)c2nc(-n3ccnc3)ccc2N)CC1 [compound 60, 3-amino-6-(1H-imidazol-1-yl)-N-((1r,4r)-4-methoxycyclohexyl) picolinamide]"
20,2.8 nM,"O=C(Nc1ccncc1)c1cc(C(F)(F)F)cc(-n2ccnc2)n1 [compound 190, 6-(1H-imidazol-1-yl)-N-(pyridin-4-yl)-4-(trifluoromethyl) picolinamide]"

row,Compound,IC50
1,"CO[C@H]1CC[C@H](NC(=O)c2cc(OC3CCC3)nc(-n3ccnc3)n2)CC1 [compound 104, 6-cyclobutoxy-2-(1H-imidazol-1-yl)-N-((1r,4r)-4-methoxycyclohexyl)pyrimidine-4-carboxamide]",26 nM
